± gives the expanded uncertainty stated by the source.
Columns and labels:
[1] = Crystal; DSC
[2] = Molar enthalpy of transition or fusion; details: Crystal; DSC

Triple point temperature [1]: 400.15 ± 1.2 K | Molar enthalpy of transition or fusion [2]: 7.08 ± 0.956 kcal/mol
SMILES: CC1=NN(c2ccccc2)C(=O)C1 [Edaravone]
